Results: patent US7217710B2, “Substituted pyrazolopyrimidines” (SmithKline Beecham Corporation, priority 2001, dated 2007)

These molecules were tested against T1, GST-TIE2 (intracellular domains of human TIE2) (Homo sapiens, UniProt Q02763) (assay: TIE-2 Enzyme Assay (TIE2-E2), LANCE method). Conditions: not given.
T1 construct: made in house
Format: biochemical
Text: TIE-2 Enzyme Assay (TIE2-E2
The TIE-2 enzyme assay uses the LANCE method (Wallac) and GST-TIE2, baculovirus-expressed recombinant constructs of the intracellular domains of human TIE2 (amino acids 762–1104, GenBank Accession # L06139) tagged by GST). The method measures the ability of the purified enzymes to catalyse the transfer of the γ-phosphate from ATP onto tyrosine residues in a biotinylated synthetic peptide, D1–15 (biotin-C6-LEARLVAYEGWVAGKKKamide). This peptide phosphorylation is detected using the following procedure: for enzyme preactivation, GST-TIE2 is incubated for 2 hours at room temperature with 80 μM ATP, 10 mM MgCl2, 0.1 mg/ml BSA, 0.01% Tween 20 and 1 mM DTT in 100 mM HEPES buffer (pH7.4). 5 nM preactivated GST-TIE2 is incubated for 2 hours at room temperature in 96 well plates with 1 uM D1–15 peptide, 80 uM ATP, 10 mM MgCl2, 0.1 mg/ml BSA, 0.01% Tween 20 and titrated test compound (diluted from a 10 mM stock in DMSO, final DMSO concentration is 2.4%) in 100 mM HEPES (pH7.4). The reaction is stopped by the addition of EDTA (final concentration 45 mM). Streptavidin linked-APC (allophycocyanin, PerkinElmer) and europium-labeled anti-phosphotyrosine antibody (PerkinElmer) are then added at the final concentration of 8 nM and 1 nM, respectively. The APC signal is measured using an Wallac Multilabel 1420 counter. (Wallac Berthold Japan). The percent inhibition of activity is calculated relative to blank control wells. The concentration of test compound that inhibits 50% of activity (IC50) is interpolated using nonlinear regression (Levernberg-Marquardt) and the equation, y=Vmax (1−x/(K+x))+Y2, where “K” is equal to the IC50. The IC50 values are converted to pIC50 values, i.e., −log IC50 in Molar concentration.

T1 sequence (Q02763 762-1104): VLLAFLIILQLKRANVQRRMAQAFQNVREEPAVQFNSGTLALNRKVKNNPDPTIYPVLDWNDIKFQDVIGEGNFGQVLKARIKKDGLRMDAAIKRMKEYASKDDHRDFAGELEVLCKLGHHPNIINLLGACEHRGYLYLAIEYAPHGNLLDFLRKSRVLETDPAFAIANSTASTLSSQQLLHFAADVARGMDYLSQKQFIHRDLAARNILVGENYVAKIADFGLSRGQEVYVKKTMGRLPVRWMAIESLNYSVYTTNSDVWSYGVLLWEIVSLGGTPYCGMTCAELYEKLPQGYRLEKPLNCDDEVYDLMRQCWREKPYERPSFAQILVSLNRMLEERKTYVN

SMILES | TIE2 PIC50 TIE2-E2 assay
CN1CCC(N(C)c2ncnc3[nH]nc(-c4ccc(NC(=O)Nc5cc(C(F)(F)F)ccc5F)cc4)c23)CC1 [Example 65, 1-(2-fluoro-5-trifluoromethyl-phenyl)-3-(4-[methyl-(1-methyl-piperidin-4-ylamino]-1H-pyrazolo[3,4-d]pyrimidin-3-yl]-phenyl}-urea] | + (+ = PIC50 = 5.00 to less than 6.00)
Cn1nc(-c2ccc(NC(=O)Nc3cc(C(F)(F)F)ccc3F)cc2)c2cnc(Nc3cccc(Cl)c3)nc21 [Example 63] | ++ (++ = PIC50 = 6.00 to less than 7.00)

Same assay, conditions: read-out: TIE2 PIC50 TIE2-E2 assay

SMILES | IC50
Cn1nc(-c2ccc(NC(=O)Nc3cc(C(F)(F)F)ccc3F)cc2)c2cnc(NCCOC(=O)Nc3cc(C(F)(F)F)ccc3F)nc21 [Example 30, (Fluoro-trifluoromethyl-phenyl)-carbamic acid 2-(3-{4-[3-(fluoro-trifluoromethyl-phenyl)-ureido]-phenyl}-1-methyl-1H-pyrazolo[3,4-d]pyrimidin-6-ylamino)-ethyl ester] | 1000 to 10000 nM
Cn1nc(-c2ccc(NC(=O)Nc3cc(C(F)(F)F)ccc3F)cc2)c2cnc(NCCCN3CCCC3)nc21 [Example 86] | ≤ 39.8 nM
Cn1nc(-c2ccc(NS(=O)(=O)c3cccc(Cl)c3Cl)cc2)c2cnc(NCCCN3CCOCC3)nc21 [Example 103, 2,3-Dichloro-N-{4-[1-methyl-6-(3-morpholin-4-yl-propylamino)-1H-pyrazolo[3,4-d]pyrimidin-3-yl)-phenyl}-benzenesulfonamide] | > 10000 nM
Cn1nc(-c2ccc(NC(=O)Nc3cc(C(F)(F)F)ccc3F)cc2)c2cnc(NCCc3ccccc3)nc21 [Example 81, 1-(2-Fluoro-5-trifluoromethyl-phenyl)-3-{4-[(1-methyl-6-phenethylamino)-1H-pyrazolo[3,4-d]pyrimidin-3-yl]-phenyl} urea] | 1000 to 10000 nM
CCNc1ncc2c(-c3ccc(NC(=O)Nc4ccc(C(F)(F)F)cc4F)cc3)nn(C)c2n1 [Example 162] | 1000 to 10000 nM
Cn1nc(-c2ccc(NS(=O)(=O)c3cccc(Cl)c3Cl)cc2)c2cnc(NCCCN3CCCC3)nc21 [Example 105, 2,3-Dichloro-N-{4-[1-methyl-6-(3-pyrrolidin-1-yl-propylamino)-1H-pyrazolo[3,4-d]pyrimidin-3-yl]-phenyl}-benzenesulfonamide] | > 10000 nM
CN(C)CCCNc1ncc2c(-c3ccc(NC(=O)Nc4cc(C(F)(F)F)ccc4F)cc3)nn(C)c2n1 [Example 87, 1-(2-Fluoro-5-trifluoromethyl-phenyl)-3-{4-[1-methyl-6-(3-dimethylamino-propylamino)-1H-pyrazolo[3,4-d]pyrimidin-3-yl]-phenyl} urea] | ≤ 39.8 nM
CN1CCC(Nc2ncc3c(-c4ccc(NS(=O)(=O)c5cccc(Cl)c5Cl)cc4)nn(C)c3n2)CC1 [Example 68] | 100 to 1000 nM
Cc1cc(-c2nn(C)c3nc(NCCN4CCOCC4)ncc23)ccc1NC(=O)Nc1cc(C(F)(F)F)cc(C(F)(F)F)c1 [Example 47, 1-(Bis-trifluoromethyl-phenyl)-3-{methyl-[methyl-(2-morpholin-4-yl-methylamino)-1H-pyrazolo[3,4-d]pyrimidin-3-yl]-phenyl}-urea] | 100 to 1000 nM
CCc1cccc(NC(=O)Nc2ccc(-c3nn(C)c4nc(NCCN5CCOCC5)ncc34)cc2)c1 [Example 38, 1-(3-Ethyl-phenyl)-3-{4-[1-methyl-6-(2-morpholin-4-yl-ethylamino) -1H-pyrazolo[3,4-d]pyrimidin-3-yl]-phenyl}-urea] | 39.8 to 100 nM
CC1CCCCN1CCCNc1ncc2c(-c3ccc(NS(=O)(=O)c4cccc(Cl)c4Cl)cc3)nn(C)c2n1 (stereo not drawn) [Example 104, 2,3-Dichloro-N-(4-{1-methyl-6-[3-(2-methyl-piperidin-1-yl)-propylamino]-1H-pyrazolo[3,4-d]pyrimidin-3-yl)-phenyl}-benzenesulfonamide] | > 10000 nM
Cn1nc(-c2ccc(NS(=O)(=O)c3cccc(Cl)c3Cl)cc2)c2cnc(NCCCCN3CCCC3)nc21 [Example 110, 2,3-Dichloro-N-{4-[1-methyl-6-(4-pyrrolidin 1-yl-butylamino)-1H-pyrazolo[3,4-d]pyrimidin-3-yl]-phenyl}-benzenesulfonamide] | > 10000 nM
Cn1nc(-c2ccc(NC(=O)Nc3cc(C(F)(F)F)ccc3F)c(F)c2)c2cnc(NCCCN3CCOCC3)nc21 [Example 127] | ≤ 39.8 nM
Cn1nc(-c2ccc(NC(=O)Nc3cc(C(F)(F)F)ccc3F)cc2)c2cnc(NCCCCNC(=N)N)nc21 [Example 99, 1-(2-Fluoro-5-trifluoromethyl-phenyl)-3-{4-[1-methyl-6-(4-guanidino-butylamino)-1H-pyrazolo[3,4-d]pyrimidin-3-yl]-phenyl} urea] | 39.8 to 100 nM
CCN(CC)CCCNc1ncc2c(-c3ccc(NC(=O)Nc4cc(C(F)(F)F)ccc4F)c(F)c3)nn(C)c2n1 [Example 129] | ≤ 39.8 nM
Cn1nc(-c2ccc(NC(=S)Nc3cccc(C(F)(F)F)c3)cc2)c2cnc(NCCN3CCOCC3)nc21 [Example 36, 1-{4-[1-Methyl-6-(2-morpholin-4-yl-ethylamino)-1H-pyrazolo[3,4-d]pyrimidin-3-yl]-phenyl}-3-(3-trifluoromethyl-phenyl)-thiourea] | 100 to 1000 nM
CN1CCCC1CCNc1ncc2c(-c3ccc(NS(=O)(=O)c4cccc(Cl)c4Cl)cc3)nn(C)c2n1 (stereo not drawn) [Example 108, 2,3-Dichloro-N-(4-{1-methyl-6-[2-(1-methyl-pyrrolidin-2-yl)-ethylamino]-1H-pyrazolo[3,4-d]pyrimidin-3-yl]-phenyl}-benzenesulfonamide] | > 10000 nM

Other lines, results leading:

IC50 | SMILES
100 to 1000 nM | Cn1nc(-c2ccc(NC(=O)Nc3cc(C(F)(F)F)ccc3F)cc2)c2cnc(NCCc3ccccn3)nc21 [Example 142]
≤ 39.8 nM | CN1CCCC1CCNc1ncc2c(-c3ccc(NC(=O)Nc4cc(C(F)(F)F)ccc4F)c(F)c3)nn(C)c2n1 (stereo not drawn) [Example 130]
100 to 1000 nM | CCc1cccc(NC(=O)Nc2ccc(-c3nn(C)c4nc(NCCN5CCOCC5)ncc34)cc2C)c1 [Example 45, 1-(3-Ethyl-phenyl)-3-{2-methyl-4-[1-methyl-6-(2-morpholin-4-yl-ethylamino)-1H-pyrazolo[3,4-d]pyrimidin-3-yl]-phenyl}-urea]
1000 to 10000 nM | CC(=O)c1cccc(NC(=O)Nc2ccc(-c3nn(C)c4nc(NCCN5CCOCC5)ncc34)cc2)c1 [Example 40, 1-(3-Acetyl-phenyl)-3-{4-[1-methyl-6-(2-morpholin-4-yl-ethylamino)-1H-pyrazolo[3,4-d]pyrimidin-3-yl]-phenyl}-urea]
> 10000 nM | Cn1nc(-c2ccc(NS(=O)(=O)c3cccc(Cl)c3Cl)cc2)c2cnc(NC(CO)CO)nc21 [Example 118, 2,3-Dichloro-N-{4-[1-methyl-6-(2-hydroxy-1-hydroxymethyl-ethylamino)-1H-pyrazolo[3,4-d]pyrimidin-3-yl]-phenyl}-benzenesulfonamide]
≤ 39.8 nM | CN1CCN(CCCNc2ncc3c(-c4ccc(NC(=O)Nc5cc(C(F)(F)F)ccc5F)c(F)c4)nn(C)c3n2)CC1 [Example 131]
> 10000 nM | CN(C)CCCNc1ncc2c(-c3ccc(NS(=O)(=O)c4cccc(Cl)c4Cl)cc3)nn(C)c2n1 [Example 106, 2,3-Dichloro-N-{4-[1-methyl-6-(3-dimethylamino-propylamino)-1H-pyrazolo[3,4-d]pyrimidin-3-yl]-phenyl}-benzenesulfonamide]
≤ 39.8 nM | CC1CCCCN1CCCNc1ncc2c(-c3ccc(NC(=O)Nc4cc(C(F)(F)F)ccc4F)c(F)c3)nn(C)c2n1 (stereo not drawn) [Example 128]
